The term EC50 denotes the concentration giving half of the maximal effect. The term melting point denotes the temperature, or range, at which the solid turns liquid.

Data set [1] deals with HaCaT cells. The experiment in a line: Cell death on Zeiss Live Cell Observer after UV light. The data set is classed as cell-based. Here is the method:
(§1) One day prior to imaging, HaCaT or J2 cells (20,000 approx.) were seeded into each well of a 6 well or 24 well plastic plate. Cells were allowed to incubate overnight in serum containing media. One to four hours before imaging the normal media was replaced with compound containing media, 1 mL per well. The cells were imaged in a 37° C. heated chamber and supplied with 5% CO2. Zeiss Live Cell Observer microscope: OSRAM 1×HBO 103 W/2 100 Watt Mercury Bulb, DAPI Excitation filter=335-385 nm, DAPI Emission filter=420-470 nm. Note: Cells were imaged in DMEM media which contains phenol red.

Data set [2] in a line: Absorbance and emission spectra. It is filed as physicochemical. The conditions noted are these: in chloroform. The procedure: FIG. 18 illustrates the combined normalised absorbance spectra of DC324, DC473 and DC474 in CHCl3 (10 μM);
FIG. 19 illustrates the combined normalised emission spectra of DC324, DC473 and DC474 in CHCl3 (100 nM) with excitation at their respective maximal absorption wavelengths;

For data set [3], the system named is HaCaT cells. The experiment in a line: Dose response of cell death after 10 s UV (time lapse imaging). The conditions noted are these: Homo sapiens, light or radiation study, 10 seconds of UV (DAPI filter, 20× objective), 24 hours after initial irradiation, read-out: EC50 based on average viable fraction of the cellular population. Here is the method:
The speed of death was tested at a number of concentrations in order to determine an estimate for the EC50 (half maximal effective concentration) value. Morphological changes were recorded using time lapse imaging at 5 minute intervals. The time taken between 10 s of UV light treatment and the first sign of damage to the cell membranes was recorded. Each cell in the field of view was treated as an individual data point, before taking an average of the time for each concentration.
Referring to FIG. 12: The dose-dependent response of HaCaT cells treated with DC324 and DC473 and 10 seconds of UV. UV exposure was administered through the DAPI filter and a 20× objective lens, phase 0.

The subject of data set [4] is J2 cells, a mouse fibroblast cell line. As to the kind of experiment: Cell death on Zeiss Live Cell Observer after UV light, J2 cells. It is filed as cell-based. The procedure:
as §1
Referring to FIG. 6: Cell death observations were consistent across different cell lines. […] A 10× objective lens at Phase 0 was used.

Data set [5] deals with HaCaT cells. The experiment in a line: Cell death on Zeiss 880 confocal, 405 nm laser light. The data set is classed as cell-based, human. The conditions noted are these: 10 μM; for membrane blebbing on repeated exposures to 405 nm laser: up to 47 exposures. The procedure: One day prior to imaging, HaCaT cells (4000 approx.) were seeded into each well of an 8 well glass slide. Cells were allowed to incubate overnight in serum containing media. One hour before imaging the normal media was replaced with compound containing media, 1 mL per well. The cells were imaged in a 37° C. heated chamber using the Zeiss LSM 880 with Airyscan confocal laser scanning microscope. Note: Cells were imaged in DMEM media which contains phenol red.
Images of 10 μM compound treated cells were taken every twenty minutes and at each time point a treatment of 405 nm light at 50% laser strength was applied.

Data set [6] concerns HaCaT cells. The experiment in a line: ROS staining (Superoxide Detection Reagent, CellRox). The conditions noted are these: for superoxide stain fluorescence after UV exposure: UV treatment, rhodamine filter, 60-260 seconds after UV. The data set is classed as cell-based, human. Here is the method:
One day prior to imaging, HaCaT cells (20,000 approx) were seeded into each well of a 24 well plastic plate. Cells were allowed to incubate overnight in serum containing media. Three hours prior to imaging, the media in each well was replaced with fresh serum containing media which included a 1:500 dilution of Superoxide Detection Reagent, CellRox. […] The cells were incubated with the ROS stain at 37° C. for one hour. An hour and a half before imaging, the media in the negative control well was replaced with N-acetyl-L-cysteine diluted in serum containing media (1 mL, 10 mM). One hour before imaging the media in all but one of the other wells was replaced with compound containing media, 1 mL per well. Thirty minutes prior to imaging, the media in the positive control well was replaced with pyocyanine diluted in serum containing media (1 mL, 500 μM). Pyocyanine induces ROS within 20-30 minutes. The cells were imaged in a heated chamber and supplied with 5% CO2. The cells were imaged in a 37° C. heated chamber using the Zeiss LSM 880 with Airyscan confocal laser scanning microscope. Cells were irradiated with 405 nm laser to activate compounds and ROS dye was excited with 633 nm laser Note: Cells were imaged in DMEM media which contains phenol red.
In order to gain more insight into the mode of action leading to cell death, we examined the photo-initiated ROS production using the redox reactive dye, CellRox, which fluoresces in response to oxidation by reactive oxygen species.

For the compound `C#CCN1CCC(C)(C)c2cc(C#Cc3ccc(/C=C/C(=O)OC)cc3)ccc21` [DC473], the “membrane blebbing and cell death following exposure to UV light (initial screening)” value in the data set with HaCaT cells [1] (UV light) is “induced membrane blebbing and cell death”. Besides, in data set [2], the Absorbance wavelength max is recorded as 380 max nm and the Absorbance wavelength range was 275-450 range nm. In data set [2] (excitation at 380 nm), the Emission wavelength max is 520 max nm and the Emission wavelength range is given as 440-680 range nm. In addition, the EC50 in the data set with HaCaT cells [3] is 0.18 µM.
Turning to `CC(C)N1CCC(C)(C)c2cc(C#Cc3ccc(/C=C/C(=O)O)cc3)ccc21` [DC324, (2E)-3-(4-2-[4,4-Dimethyl-1-(propan-2-yl)-1,2,3,4-tetrahydroquinolin-6-yl]ethynylphenyl)prop-2-enoic Acid], the “cells from the same well away from the site of UV exposure” value in the data set with HaCaT cells [1] (10 μM, no UV exposure) is “healthy cells”. In addition, the “time to necrosis after UV treatment” value with HaCaT cells [1] (10 μM, single 10 s treatment with UV light, 10× objective lens, Phase 0) is reported as “within two hours”. Also, in the data set on HaCaT cells [1] (UV light), the “membrane blebbing and cell death following exposure to UV light (initial screening)” value was “induced membrane blebbing and cell death”; the “speed of cell death induction compared with other compounds” value is “most rapid inducer of cell death”. In addition, the “UV untreated cells in the compound, same well as treated area” value in data set [4] (no UV) is “appear healthy after 26 hours”. In addition, the “membrane blebbing after a single UV treatment” value in data set [4] (single UV treatment, 10× objective lens, Phase 0) is given as “displayed membrane blebbing within two hours”. Further, in data set [2], the Absorbance wavelength max is 400 max nm and the Absorbance wavelength range is listed as 275-475 range nm. In addition, in data set [2] (excitation at 400 nm), the Emission wavelength max is recorded as 560 max nm and the Emission wavelength range is 450-700 range nm. In the data set on HaCaT cells [5] (405 nm laser at 50% strength), the “number of exposures until first bleb appeared” value turned out to be 21 exposures, the “type of cell death induced by 405 nm light” value is on record as “more characteristic of apoptosis than the cell death caused by UV light” and the “membrane blebbing on repeated exposures to 405 nm laser” value is reported as “Membrane blebbing was induced”. The “cell death under 405 nm laser light versus DMSO control” value in the data set on HaCaT cells [5] (405 nm light at 50% laser strength every twenty minutes) is on record as “significantly different to the DMSO control”. Also, in the data set on HaCaT cells [6] (405 nm light, before vs after irradiation), the “CellRox (ROS-stimulated) relative fluorescence after irradiation” value is recorded as “steady increase”. For the same compound, the “superoxide stain fluorescence after UV exposure” value with HaCaT cells [6] is reported as “indicates superoxide production”. For the same compound, the concentration giving a half-maximal response (EC50) in the data set on HaCaT cells [3] was 0.2 µM.
In the case of `CC1=C(/C=C/C(C)=C/C=C/C(C)=C/C(=O)O)C(C)(C)CCC1` [ATRA, All Trans-Retinoic Acid, reference compound], the “membrane blebbing and cell death following exposure to UV light (initial screening)” value in the data set with HaCaT cells [1] (UV light) was “no membrane blebbing was observed”. Besides, in the data set with HaCaT cells [5] (405 nm laser at 50% strength), the “membrane blebbing on repeated exposures to 405 nm laser” value is “No membrane blebbing was observed”. Also, the “superoxide stain fluorescence after UV exposure” value in the data set on HaCaT cells [6] was “produced an increased level of fluorescence post exposure to UV”.
Take `CC1(C)CCC(C)(C)c2cc(C#Cc3ccc(C(=O)O)cc3)ccc21` [EC23, reference compound]: the “membrane blebbing and cell death following exposure to UV light (initial screening)” value in the data set with HaCaT cells [1] (UV light) was “no membrane blebbing was observed”.
For the compound `C#CCN1CCC(C)(C)c2cc(C#Cc3ccc(/C=C/C(=O)O)cc3)ccc21` [DC474, (2E)-3-(4-{2-[4,4-Dimethyl-1-(prop-2-yn-1-yl)-1,2,3,4-tetrahydroquinolin-6-yl]ethynyl}phenyl)prop-2-enoic Acid], the melting point is 193 to 195 °C (dec.). In addition, in data set [2], the Absorbance wavelength max came out at 380 max nm and the Absorbance wavelength range is 275-450 range nm. Further, in data set [2] (excitation at 300 nm), the Emission wavelength max stood at 540 max nm and the Emission wavelength range is 450-700 range nm.

(Values after patent publication US11324825B2, “Synthetic retinoids (in cell modulation)” (University of Durham, priority 2016, dated 2022).)
